The source of these data is patent US12036226B2, “Methods of treating subjects having diabetes with chronic kidney disease” (Poxel SA, priority 2018, dated 2024).

Series [1] can be described thus: Metabolism in standard in vitro assays. The series is classed as in vitro ADME.
The nature of series [2]: Pharmacokinetics of imeglimin (dose proportionality, excretion pathway). The series is classed as in vivo.
A further series can be described thus: Protein binding. The series is classed as in vitro ADME.

As for `C[C@H]1N=C(N(C)C)N=C(N)N1` [imeglimin, (6R)—N^2, N^2,6-trimethyl-3,6-dihydro-1,3,5-triazine-2,4-diamine], in series [1], the metabolism result is “no appreciable metabolism”. Besides, the “dose proportionality of exposures” value in series [2] (250 to 2000 mg range) is “less than dose proportional exposures”. Besides, the main excretion pathway entry in series [2] (in vivo) is recorded as “renal elimination as the main excretion pathway”. Moreover, in “Protein binding”, the protein binding was less than 8 % bound.
